ChEMBL document CHEMBL1201862, “PubChem BioAssay data set” (2004)
Activity calls are given as the source filed them.

Tests used:
[1] = microbe, parasite or virus in culture; type: functional; settings: Mycobacterium tuberculosis
[2] = NIH3T3 cell viability loss – ATP luminescence, mouse fibroblasts, counter-screen, dose response (AID 2010); type: functional, cell-based;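 also: cells exposed to compound for about 90 hours before reading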
[3] = target: Dual specificity protein phosphatase 3 (Homo sapiens, UniProt P51452); test: SAR VHR1 Fluorescent Assay for In Vitro dose response studies Set 3. [Related pubchem assays (depositor defined):AID1654, AID1661, AID1878]; type: functional
[4] = Vero E6 cell cytotoxicity, dose response, cytotoxicity control for non-replicating M. tuberculosis project, secondary assay (AID 492998); type: functional, VeroE6; settings: Vero C1008
[5] = THP-1 cell cytotoxicity, dose response, cytotoxicity control for non-replicating M. tuberculosis project (AID 489025); type: functional
[6] = Trypanosoma cruzi growth suppression in host cells – NIH3T3 host cells, beta-gal luminescence, confirmation (AID 2044); type: functional, cell-based;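 also: intracellular parasites grown in NIH/3T3 mouse fibroblasts as host cells; luminescent beta-galactosidase reporter signal from transgenic T. cruzi replicating inside host cells; inhibitors lower the luminescence signal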
[7] = HepG2 cell cytotoxicity, dose response, cytotoxicity control for non-replicating M. tuberculosis project (AID 489018); type: functional; settings: Mycobacterium tuberculosis
[8] = target: T1, Histone-lysine N-methyltransferase NSD2 (Homo sapiens, UniProt O96028); type: biochemical
T1 sequence (O96028 whole entry): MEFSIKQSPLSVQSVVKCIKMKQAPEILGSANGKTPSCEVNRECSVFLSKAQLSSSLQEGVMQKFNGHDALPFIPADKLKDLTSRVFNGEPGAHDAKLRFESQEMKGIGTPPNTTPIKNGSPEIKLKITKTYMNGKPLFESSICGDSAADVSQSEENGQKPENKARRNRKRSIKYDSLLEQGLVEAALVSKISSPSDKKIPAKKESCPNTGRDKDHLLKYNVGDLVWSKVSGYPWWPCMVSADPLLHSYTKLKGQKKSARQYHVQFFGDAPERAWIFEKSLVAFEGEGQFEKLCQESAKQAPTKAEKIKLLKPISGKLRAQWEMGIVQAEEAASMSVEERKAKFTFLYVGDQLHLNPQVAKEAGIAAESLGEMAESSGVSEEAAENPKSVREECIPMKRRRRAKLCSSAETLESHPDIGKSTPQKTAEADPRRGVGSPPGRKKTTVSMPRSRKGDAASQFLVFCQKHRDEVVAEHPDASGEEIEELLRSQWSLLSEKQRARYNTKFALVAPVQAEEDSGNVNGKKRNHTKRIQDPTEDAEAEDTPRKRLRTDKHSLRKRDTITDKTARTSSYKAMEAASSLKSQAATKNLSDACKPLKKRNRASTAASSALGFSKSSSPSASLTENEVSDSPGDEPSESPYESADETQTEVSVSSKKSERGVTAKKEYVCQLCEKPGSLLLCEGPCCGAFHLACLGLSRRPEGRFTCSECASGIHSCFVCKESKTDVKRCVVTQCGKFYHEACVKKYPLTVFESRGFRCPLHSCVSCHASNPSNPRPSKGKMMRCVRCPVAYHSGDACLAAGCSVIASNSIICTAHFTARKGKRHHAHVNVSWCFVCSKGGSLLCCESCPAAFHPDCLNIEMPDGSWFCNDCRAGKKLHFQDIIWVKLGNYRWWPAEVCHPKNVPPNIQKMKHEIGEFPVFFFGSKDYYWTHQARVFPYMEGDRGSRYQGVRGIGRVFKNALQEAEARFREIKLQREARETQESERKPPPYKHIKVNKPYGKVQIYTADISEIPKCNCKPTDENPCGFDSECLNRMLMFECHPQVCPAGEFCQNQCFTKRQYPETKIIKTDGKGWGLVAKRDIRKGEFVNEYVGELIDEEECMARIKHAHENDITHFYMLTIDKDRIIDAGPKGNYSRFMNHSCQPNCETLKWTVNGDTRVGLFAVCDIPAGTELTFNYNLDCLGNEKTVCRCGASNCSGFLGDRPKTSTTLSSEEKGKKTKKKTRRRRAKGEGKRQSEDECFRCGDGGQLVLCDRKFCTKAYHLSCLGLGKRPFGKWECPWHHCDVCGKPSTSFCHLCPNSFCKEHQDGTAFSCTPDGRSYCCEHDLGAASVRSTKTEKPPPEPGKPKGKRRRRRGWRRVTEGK

CAAX prenyl protease 1 = CAAX prenyl protease 1 (Saccharomyces cerevisiae S288c, UniProt P47154); test: yeast CAAX protease Ste24 inhibition – biochemical, S. cerevisiae, plate reader, cherry-pick, dose response (AID 488815)
Trypsin = Trypsin (Sus scrofa, UniProt P00761); test: trypsin protease activity blockade – biochemical, quenched peptide fluorescence, cherry-pick, selectivity assay for Rce1 protease inhibitor project, dose response (AID 488789)
[9] = test system: Streptococcus sp. 'group A'; test: Streptococcus pyogenes SK(-)GAS viability under kanamycin – luminescence, BacTiterGlo, confirmation, counter-screen for streptokinase expression inhibitor project, dose response (AID 1900); type: functional, organism-based
Streptococcus = test: GAS UMAA2166 growth inhibition – luminescence, BacTiterGlo, counter-screen for streptokinase expression inhibitor project, dose response (AID 1915); type: functional, organism-based;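 also: potency for reduction of bacterial viability or growth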
Escherichia coli = test: microbe, parasite or virus in culture
Streptokinase A = target: T2, Streptokinase A (Streptococcus pyogenes serotype M1, UniProt P10520); test: viability-normalized secreted streptokinase activity reduction – plasminogen activation absorbance, OD405, dose response (AID 1914); type: functional, Streptococcus pyogenes M1 GAS;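 also: secreted streptokinase activity via plasminogen activation per viability signal from cell pellet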
T2 sequence (P10520 whole entry): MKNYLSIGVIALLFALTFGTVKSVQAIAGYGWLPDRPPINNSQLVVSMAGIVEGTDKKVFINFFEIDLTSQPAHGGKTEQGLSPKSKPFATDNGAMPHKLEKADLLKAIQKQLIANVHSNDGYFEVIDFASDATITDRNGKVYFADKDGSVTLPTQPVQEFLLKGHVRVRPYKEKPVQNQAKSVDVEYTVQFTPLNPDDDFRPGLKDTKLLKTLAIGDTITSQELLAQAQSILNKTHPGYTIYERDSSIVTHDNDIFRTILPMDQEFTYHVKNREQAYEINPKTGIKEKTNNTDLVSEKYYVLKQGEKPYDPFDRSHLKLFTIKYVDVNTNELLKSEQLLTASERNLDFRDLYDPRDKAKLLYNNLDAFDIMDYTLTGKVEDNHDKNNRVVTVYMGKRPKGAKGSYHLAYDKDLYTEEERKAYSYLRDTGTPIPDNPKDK

[10] = target: Glyceraldehyde-3-phosphate dehydrogenase (Homo sapiens, UniProt P04406)
[11] = target: Heat shock cognate 71 kDa protein (Homo sapiens, UniProt P11142); test: In Vitro Hsc70 Dose Response Fluorescence Polarization Assay. [Related pubchem assays: 1072 ]
[12] = target: T3, Dual specificity protein phosphatase 6 (Rattus norvegicus, UniProt Q64346); type: functional
T3 sequence (Q64346 whole entry): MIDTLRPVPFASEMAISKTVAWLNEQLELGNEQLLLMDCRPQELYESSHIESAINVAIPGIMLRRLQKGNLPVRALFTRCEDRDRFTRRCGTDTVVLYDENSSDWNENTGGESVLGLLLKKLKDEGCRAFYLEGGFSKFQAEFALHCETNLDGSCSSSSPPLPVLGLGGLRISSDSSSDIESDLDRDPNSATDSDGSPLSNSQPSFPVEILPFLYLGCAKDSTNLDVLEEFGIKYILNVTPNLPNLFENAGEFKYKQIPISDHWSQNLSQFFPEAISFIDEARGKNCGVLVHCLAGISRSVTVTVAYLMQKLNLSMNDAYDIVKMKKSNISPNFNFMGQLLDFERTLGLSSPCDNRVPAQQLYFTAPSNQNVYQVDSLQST

[13] = target: Heat shock 70 kDa protein 1A (Homo sapiens, UniProt P0DMV8); test: inhibition of Hsp70 binding activity – biochemical, fluorescence polarization, SAR follow-up (AID 1072)
[14] = target: T4, Tyrosine-protein phosphatase non-receptor type 7 (Homo sapiens, UniProt P35236); type: functional
T4 sequence (P35236 whole entry): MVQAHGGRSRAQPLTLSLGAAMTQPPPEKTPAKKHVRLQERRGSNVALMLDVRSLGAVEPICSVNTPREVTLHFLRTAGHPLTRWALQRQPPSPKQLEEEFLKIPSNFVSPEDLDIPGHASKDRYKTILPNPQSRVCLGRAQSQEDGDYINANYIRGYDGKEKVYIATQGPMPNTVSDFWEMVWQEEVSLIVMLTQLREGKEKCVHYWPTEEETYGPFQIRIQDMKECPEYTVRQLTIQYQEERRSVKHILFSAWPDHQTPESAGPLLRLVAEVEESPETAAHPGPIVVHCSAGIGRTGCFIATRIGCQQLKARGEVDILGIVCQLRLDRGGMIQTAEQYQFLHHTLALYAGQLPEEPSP

[15] = target: T3, Dual specificity protein phosphatase 6
Cytochrome P450 3A4 = Cytochrome P450 3A4 (Homo sapiens, UniProt P08684);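 also: CYP3A4 tested as one member of a cytochrome P450 panel screen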
Cytochrome P450 2D6 = Cytochrome P450 2D6 (Homo sapiens, UniProt P10635);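 also: CYP2D6 member of a cytochrome P450 panel assay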
Cytochrome P450 2C9 = Cytochrome P450 2C9 (Homo sapiens, UniProt P11712)
A-375 = test: MITF: Counter assay: A375 proliferation Measured in Cell-Based System Using Plate Reader - 2084-03_Inhibitor_Dose_DryPowder_Activity. [Related pubchem assays (depositor defined):AID488944]; type: functional; settings: Homo sapiens
[16] = target: T5, Microphthalmia-associated transcription factor (Homo sapiens, UniProt O75030); test: reducers of TRPM1 reporter luminescence, concentration series – cell-based, SK-MEL-5, cherry-picked, set 3, MITF inhibitor project, dose response (AID 493073); type: functional;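 also: SK-MEL-5 melanoma cells with luciferase driven by the MITF target TRPM1 promoter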
T5 sequence (O75030 whole entry): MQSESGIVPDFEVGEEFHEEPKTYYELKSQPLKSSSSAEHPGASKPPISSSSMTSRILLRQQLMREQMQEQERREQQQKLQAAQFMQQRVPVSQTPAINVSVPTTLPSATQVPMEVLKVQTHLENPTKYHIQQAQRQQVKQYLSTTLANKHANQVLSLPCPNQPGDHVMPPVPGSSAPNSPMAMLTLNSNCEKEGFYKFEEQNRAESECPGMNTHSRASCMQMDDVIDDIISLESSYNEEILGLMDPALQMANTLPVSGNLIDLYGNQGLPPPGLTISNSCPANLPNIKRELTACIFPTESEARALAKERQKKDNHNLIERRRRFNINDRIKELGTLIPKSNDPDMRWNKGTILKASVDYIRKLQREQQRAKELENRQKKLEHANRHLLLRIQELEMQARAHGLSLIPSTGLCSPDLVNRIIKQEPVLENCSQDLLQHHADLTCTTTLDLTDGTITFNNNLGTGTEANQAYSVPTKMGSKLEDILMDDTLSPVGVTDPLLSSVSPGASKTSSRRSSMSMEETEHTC

[17] = viability loss in HEK293 cells – cell-based, plate reader, cherry-picked samples, cytotoxicity control, dose response (AID 743446); type: functional
[18] = blockade of melanocortin 4 receptor signaling – cell-based, plate reader, cherry pick, counter-screen for LGR2 antagonist project, dose response (AID 743444); type: functional;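 also: transfected HEK 293 cells stimulated with alpha-MSH peptide; potency of inhibitors of the alpha-MSH evoked signal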
[19] = blockers of bursicon-stimulated LGR2 cAMP reporter – cell-based, HEK293, CRE-luciferase reporter, cherry pick, set 2, dose response (AID 743343); type: functional;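 also: transfected cells were stimulated with diluted bursicon conditioned medium after compound addition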
[20] = toxicity toward HepG2 liver cells – cell-based, plate reader, cherry-pick, antagonist series, cytotoxicity control, dose response (AID 743416); type: functional
[21] = A549 cell cytotoxicity, dose response, cytotoxicity control, plate reader, cherry-pick, antagonist series (AID 743412); type: functional, cell-based

Chain of Trypsin (P00761 whole entry): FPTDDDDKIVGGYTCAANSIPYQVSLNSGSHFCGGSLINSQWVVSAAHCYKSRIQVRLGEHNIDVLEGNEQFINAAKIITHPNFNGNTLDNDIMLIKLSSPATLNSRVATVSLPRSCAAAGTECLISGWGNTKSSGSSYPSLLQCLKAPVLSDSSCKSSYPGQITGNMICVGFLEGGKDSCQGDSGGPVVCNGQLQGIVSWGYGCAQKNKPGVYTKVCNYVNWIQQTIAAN
Chain of Cytochrome P450 3A4 (P08684 whole entry): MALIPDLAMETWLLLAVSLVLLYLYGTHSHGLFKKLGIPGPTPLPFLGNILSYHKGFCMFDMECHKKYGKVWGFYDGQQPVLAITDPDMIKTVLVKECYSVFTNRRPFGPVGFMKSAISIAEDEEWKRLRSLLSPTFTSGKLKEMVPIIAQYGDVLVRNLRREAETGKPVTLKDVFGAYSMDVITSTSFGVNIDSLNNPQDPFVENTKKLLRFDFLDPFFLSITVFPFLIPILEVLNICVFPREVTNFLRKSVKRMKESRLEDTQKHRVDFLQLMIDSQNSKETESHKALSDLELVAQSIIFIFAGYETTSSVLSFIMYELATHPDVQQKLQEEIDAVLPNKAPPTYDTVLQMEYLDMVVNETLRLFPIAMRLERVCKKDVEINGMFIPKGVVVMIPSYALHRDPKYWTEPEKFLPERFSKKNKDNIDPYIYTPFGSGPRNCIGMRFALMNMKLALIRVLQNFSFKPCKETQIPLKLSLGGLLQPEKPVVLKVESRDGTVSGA
Chain of CAAX prenyl protease 1 (P47154 whole entry): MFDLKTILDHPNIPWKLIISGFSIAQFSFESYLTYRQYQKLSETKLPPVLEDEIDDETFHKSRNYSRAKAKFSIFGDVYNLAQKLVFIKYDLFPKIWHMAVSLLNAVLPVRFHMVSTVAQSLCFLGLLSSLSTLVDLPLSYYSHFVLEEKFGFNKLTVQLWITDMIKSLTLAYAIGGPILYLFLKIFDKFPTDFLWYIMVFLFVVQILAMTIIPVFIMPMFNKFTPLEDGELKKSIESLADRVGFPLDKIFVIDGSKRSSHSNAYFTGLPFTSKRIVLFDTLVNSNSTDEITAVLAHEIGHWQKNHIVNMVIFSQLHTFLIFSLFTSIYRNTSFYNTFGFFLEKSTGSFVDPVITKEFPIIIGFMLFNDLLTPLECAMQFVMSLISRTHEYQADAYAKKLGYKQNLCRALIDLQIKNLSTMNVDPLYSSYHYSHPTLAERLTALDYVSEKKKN
Chain of Cytochrome P450 2D6 (P10635 whole entry): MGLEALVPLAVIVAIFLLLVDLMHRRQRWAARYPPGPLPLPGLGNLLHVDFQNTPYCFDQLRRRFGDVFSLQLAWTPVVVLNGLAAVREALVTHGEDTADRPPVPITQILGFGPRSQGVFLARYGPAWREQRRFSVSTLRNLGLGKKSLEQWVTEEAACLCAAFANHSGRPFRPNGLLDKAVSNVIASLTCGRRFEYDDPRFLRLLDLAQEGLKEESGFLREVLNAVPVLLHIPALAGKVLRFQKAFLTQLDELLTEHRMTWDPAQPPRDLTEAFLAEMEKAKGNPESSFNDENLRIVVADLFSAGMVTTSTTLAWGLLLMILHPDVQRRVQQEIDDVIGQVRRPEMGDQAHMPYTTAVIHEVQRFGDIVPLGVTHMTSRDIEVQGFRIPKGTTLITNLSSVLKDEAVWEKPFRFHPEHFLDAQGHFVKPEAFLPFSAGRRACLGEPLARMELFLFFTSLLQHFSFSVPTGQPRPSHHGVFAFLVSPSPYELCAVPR
Chain of Heat shock 70 kDa protein 1A (P0DMV8 whole entry): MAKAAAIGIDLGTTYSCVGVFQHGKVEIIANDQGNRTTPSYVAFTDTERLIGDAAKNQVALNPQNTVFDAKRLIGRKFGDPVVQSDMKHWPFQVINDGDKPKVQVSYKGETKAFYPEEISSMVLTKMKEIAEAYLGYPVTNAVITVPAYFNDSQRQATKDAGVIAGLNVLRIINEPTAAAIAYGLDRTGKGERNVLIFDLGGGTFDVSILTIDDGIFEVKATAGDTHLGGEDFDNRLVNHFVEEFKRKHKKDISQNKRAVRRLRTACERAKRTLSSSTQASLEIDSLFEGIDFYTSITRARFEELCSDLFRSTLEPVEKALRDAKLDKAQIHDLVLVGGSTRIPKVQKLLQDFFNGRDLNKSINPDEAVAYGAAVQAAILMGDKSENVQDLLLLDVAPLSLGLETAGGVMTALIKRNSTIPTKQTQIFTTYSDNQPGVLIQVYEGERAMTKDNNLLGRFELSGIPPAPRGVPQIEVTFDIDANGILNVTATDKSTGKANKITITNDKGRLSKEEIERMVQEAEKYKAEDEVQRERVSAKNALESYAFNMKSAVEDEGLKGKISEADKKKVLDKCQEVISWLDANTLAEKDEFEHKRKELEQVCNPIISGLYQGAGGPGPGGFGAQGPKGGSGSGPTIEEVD
Chain of Heat shock cognate 71 kDa protein (P11142 whole entry): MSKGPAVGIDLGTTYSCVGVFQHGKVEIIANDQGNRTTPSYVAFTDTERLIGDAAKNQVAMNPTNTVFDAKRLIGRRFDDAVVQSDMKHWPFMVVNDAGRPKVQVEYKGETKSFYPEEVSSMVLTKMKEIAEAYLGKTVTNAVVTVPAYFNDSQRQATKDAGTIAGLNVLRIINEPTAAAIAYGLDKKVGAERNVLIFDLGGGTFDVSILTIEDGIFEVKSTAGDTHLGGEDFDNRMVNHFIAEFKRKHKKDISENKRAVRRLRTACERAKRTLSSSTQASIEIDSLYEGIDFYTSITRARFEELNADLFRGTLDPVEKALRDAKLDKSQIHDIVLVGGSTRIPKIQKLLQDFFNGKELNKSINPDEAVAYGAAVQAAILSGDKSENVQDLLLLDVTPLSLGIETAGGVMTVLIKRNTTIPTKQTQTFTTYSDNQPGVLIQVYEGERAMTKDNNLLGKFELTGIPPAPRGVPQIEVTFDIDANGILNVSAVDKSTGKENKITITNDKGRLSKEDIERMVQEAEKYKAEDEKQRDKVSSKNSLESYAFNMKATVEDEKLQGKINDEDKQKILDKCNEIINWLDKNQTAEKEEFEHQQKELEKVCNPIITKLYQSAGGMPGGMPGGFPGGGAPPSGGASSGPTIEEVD
Chain of Dual specificity protein phosphatase 3 (P51452 whole entry): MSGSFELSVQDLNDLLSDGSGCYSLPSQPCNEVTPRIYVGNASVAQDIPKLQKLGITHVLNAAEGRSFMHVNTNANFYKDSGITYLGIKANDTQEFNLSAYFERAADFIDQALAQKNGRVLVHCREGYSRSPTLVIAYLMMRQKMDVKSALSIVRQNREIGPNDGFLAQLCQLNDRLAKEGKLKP
Chain of Glyceraldehyde-3-phosphate dehydrogenase (P04406 whole entry): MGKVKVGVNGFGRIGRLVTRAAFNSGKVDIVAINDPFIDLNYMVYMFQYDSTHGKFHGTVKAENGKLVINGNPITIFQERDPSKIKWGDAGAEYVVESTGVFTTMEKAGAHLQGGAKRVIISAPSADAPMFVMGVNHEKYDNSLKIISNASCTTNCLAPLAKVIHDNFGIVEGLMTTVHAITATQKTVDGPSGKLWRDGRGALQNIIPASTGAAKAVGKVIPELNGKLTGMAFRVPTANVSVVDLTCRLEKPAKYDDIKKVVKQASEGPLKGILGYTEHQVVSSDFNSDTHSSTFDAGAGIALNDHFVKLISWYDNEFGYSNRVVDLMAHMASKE
Chain of Cytochrome P450 2C9 (P11712 whole entry): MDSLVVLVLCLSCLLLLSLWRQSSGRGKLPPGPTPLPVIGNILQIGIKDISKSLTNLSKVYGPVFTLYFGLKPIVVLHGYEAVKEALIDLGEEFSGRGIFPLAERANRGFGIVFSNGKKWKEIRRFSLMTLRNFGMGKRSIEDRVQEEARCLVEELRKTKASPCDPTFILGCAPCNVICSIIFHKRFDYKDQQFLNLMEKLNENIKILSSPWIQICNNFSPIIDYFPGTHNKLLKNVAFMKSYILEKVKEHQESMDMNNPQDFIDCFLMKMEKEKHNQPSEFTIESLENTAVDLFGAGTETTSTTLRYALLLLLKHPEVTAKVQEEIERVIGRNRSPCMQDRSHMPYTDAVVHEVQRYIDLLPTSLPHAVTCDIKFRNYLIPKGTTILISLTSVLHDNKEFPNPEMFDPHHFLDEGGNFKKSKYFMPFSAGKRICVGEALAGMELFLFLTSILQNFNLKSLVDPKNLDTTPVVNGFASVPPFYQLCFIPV

COc1cccc2sc(Nc3nnc(-c4cccs4)o3)nc12
active: CC50 [1] 27.8 µM | EC50 [2] 2.96 µM | IC50 [3] 15.6 µM | CC50 [4] 11.1 µM | CC50 [5] 11.2 µM | EC50 [6] 0.415 µM | CC50 [7] > 20 µM

CCN(CC)CCCNc1cc(C)nc2cc(-c3cccs3)nn12
active: AC50 (CAAX prenyl protease 1) 6.24 µM | AC50 (Trypsin) 19.4 µM
inactive: AC50 [8] > 20 µM

Cc1ccc(NC(=O)NCc2ccccn2)cc1Cl
> 150 µM (not active): EC50 [9] | EC50 (Streptococcus) | EC50 (Streptokinase A)
active: AC50 (Escherichia coli) 343 µM

CCOc1cc2c(c([N+](=O)[O-])c1)NC(C(=O)O)C1CC=CC21 (stereo not given)
> 100 µM (not active): IC50 [10] | IC50 [11] | IC50 [13] | IC50 [14]
inactive: IC50 [12] > 100 µM | IC50 [15] > 100 µM

CCSc1nc(O)c2c3c(sc2n1)COC(C)(CC)C3 (stereo not given)
inconclusive: AC50 (Cytochrome P450 3A4) | AC50 (Cytochrome P450 2D6) | AC50 (Cytochrome P450 2C9) 2.82 µM

Cc1ccccc1-c1nc(-c2ccccn2)no1
active: AC50 (A-375) 14.8 µM | AC50 [16] 4.18 µM | AC50 [17] 17.1 µM | AC50 [18] 1.8 µM | AC50 [19] 1.81 µM | AC50 [20] 23 µM | AC50 [21] 12.9 µM
